The target of test [1] is T1, 5-LO (5-lipoxygenase) (Homo sapiens, UniProt P09917).
T1 construct: made in house; host or cells: insect cells (lysate, 7 μg)
T1 sequence (P09917 1-674): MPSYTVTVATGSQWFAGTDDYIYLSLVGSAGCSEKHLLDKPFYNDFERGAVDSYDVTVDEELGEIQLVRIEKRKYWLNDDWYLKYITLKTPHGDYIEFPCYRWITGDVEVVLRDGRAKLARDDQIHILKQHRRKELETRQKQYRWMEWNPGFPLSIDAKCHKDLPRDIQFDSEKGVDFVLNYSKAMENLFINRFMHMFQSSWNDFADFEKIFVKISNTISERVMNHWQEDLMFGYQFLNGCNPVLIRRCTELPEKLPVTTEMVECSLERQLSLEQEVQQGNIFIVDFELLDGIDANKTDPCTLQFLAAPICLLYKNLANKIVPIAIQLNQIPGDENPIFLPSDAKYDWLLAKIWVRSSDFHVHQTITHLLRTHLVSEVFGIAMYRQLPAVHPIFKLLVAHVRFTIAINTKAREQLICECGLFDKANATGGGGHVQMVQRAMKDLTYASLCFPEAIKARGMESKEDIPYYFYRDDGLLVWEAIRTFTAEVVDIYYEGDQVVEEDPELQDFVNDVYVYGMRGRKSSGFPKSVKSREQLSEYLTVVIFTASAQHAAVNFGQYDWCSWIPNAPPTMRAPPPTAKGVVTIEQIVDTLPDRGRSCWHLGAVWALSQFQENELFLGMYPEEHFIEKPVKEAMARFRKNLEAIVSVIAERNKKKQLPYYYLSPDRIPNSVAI
Description: 5-LO enzyme assay using a FOX reagent. The test is classed as biochemical. The note with it: read-out: 5-LO (% inhibition at 1 μM); test sample 1 μM; lysates from 5-LO expressing insect cells; table does not say FOX or 234 nm readout. The protocol: Each test sample was added to lysates (7 μg) obtained from 5-LO expressing insect cells at a final concentration of 1 μM and reacted at room temperature for 3 min. Arachidonic acid as an enzyme substrate (40 μM) was added thereto and further reacted at room temperature for 4 min. Then, a FOX reagent (sulfuric acid 25 mM, xylenol orange 100 μM, FeSO4 100 μM; methanol: water=9:1) 100 μl was added thereto, and the absorbance of the reaction mixture was measured at 575 nm after 5 min.

Test [2] relates to arachidonic acid-induced ear inflammation (mouse ear edema model). Description: Mouse ear edema model (arachidonic acid-induced; ear thickness and MPO activity). Format: in vivo. The note with it: ICR mouse, oral, 1 hr before arachidonic acid treatment, versus arachidonic acid-only control. On the procedure:
The inside of the right ear of ICR mouse (6 week old) was treated with 2 mg of arachidonic acid dissolved in 20 μl of acetone for 1 hr to induce an inflammation.
After 1 hr, the difference between the right ear treated with arachidonic acid and the nontreated left ear was measured with a microgauge. Further, to measure the amount of neutrophil penetrated into a tissue as a primary marker for inflammation induction, the myeloperoxidase (MPO) activity was measured. In particular, the tissue obtained from the arachidonic acid-treated right ear was homogenized in 50 mM phosphate buffer solution (pH 6.0) supplemented with 0.5% hexadecyltrimethylammonium bromide (HTAB), subjected to centrifugation, and then, the MPO activity of the supernatant was measured.
To measure in vivo activity of each test compound, each compound was dissolved in 0.5% methylcellulose (10 mL/kg) and orally administered to the mice 1 hr before the arachidonic acid treatment. After the arachidonic acid was treated for 1 hr, the ear thickness and MPO activity were measured, and in vivo activity of the test compound was estimated by comparing them with those of a control which was treated with arachidonic acid only without the test compoud.

As a reminder, the inhibition is the share of the control response that was lost under treatment. `CCCC1(C)C=Cc2cc(NCc3ccccc3)ccc2O1` (stereo not shown) [1-81]: in test [1], the inhibition at 1 µM amounted to 61%.
On to `COc1ccc(CNc2ccc3c(c2)C=CC(C)(CCc2ccccc2)O3)cc1` (stereo not shown) [1-124], for which, in test [1], the inhibition at 1 µM amounted to 84%.
`COc1ccc(CCC2(C)C=Cc3cc(NCc4ccccc4)ccc3O2)cc1` (stereo not shown) [1-161]: in test [1], the inhibition at 1 µM is 72%.
Regarding `COc1ccc(CNc2cc3c(cc2C)OC(C)(CCc2ccccc2)C=C3)cc1` (stereo not shown) [1-324], the inhibition at 1 µM in test [1] is 51%.
Take `CC(c1cc2ccccc2s1)N(O)C(N)=O` (stereo not shown) [Zileuton, reference compound]: in test [1], the inhibition at 1 µM was found to be 85%. The “Animal model (% inhibition) Thickness (T) %” value in test [2] (ear thickness) is 67%. In addition, the “Animal model (% inhibition) MPO %” value in test [2] (myeloperoxidase activity of ear tissue) turned out to be 38%.

Values taken from patent publication US7368575B2, “6-alkylamino-2,2′-disubstituted-7,8-disubstituted-2H-1-benzopyran derivatives as 5-lipoxygenase inhibitor” (Korea Research Institute of Chemical Technology, priority 2004, dated 2008).
